Experimental findings from patent US9994551B2, “Pyridazine derivatives as RORc modulators” (Genentech, Inc., priority 2015, dated 2018) are described below.

This assay concerns the target T1, RORc ligand binding domain (Homo sapiens, UniProt P51449).
T1 construct: host or cells: E. coli
T1 sequence (P51449 269-508 limits assumed): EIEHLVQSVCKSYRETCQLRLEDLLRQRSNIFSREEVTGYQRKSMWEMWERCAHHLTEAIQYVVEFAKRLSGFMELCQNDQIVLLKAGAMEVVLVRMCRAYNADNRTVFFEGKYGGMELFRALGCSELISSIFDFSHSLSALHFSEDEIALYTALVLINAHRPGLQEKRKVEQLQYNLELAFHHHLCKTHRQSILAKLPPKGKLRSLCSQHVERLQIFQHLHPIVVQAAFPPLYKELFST
As to the kind of experiment: In vitro RORc ligand binding assay (25-[3H]hydroxycholesterol displacement, filter binding).
Regarding `CC1(C)[C@H]2CC[C@]1(O[C@H](C(N)=O)C1CC1)c1nnc(-c3c(F)cccc3F)cc12` [Compound 45], the IC50 came out at 132 nM.
Next, `CC1(C)[C@H]2CC[C@]1(Oc1cc[nH]c(=O)c1)c1nnc(-c3c(F)cccc3F)cc12` [Compound 34, 4-(((5S,8R)-3-(2,6-difluorophenyl)-9,9-dimethyl-5,6,7,8-tetrahydro-5,8-methanocinnolin-8-yl)oxy)pyridin-2(1H)-one]: 202 nM; `CC1(C)C2CCC1(C1CCCN(C(=O)c3ncco3)C1)c1nnc(-c3c(F)cccc3F)cc12` (centres unmarked) [Compound 159, [3-[5-(2,6-difluorophenyl)-11,11-dimethyl-3,4-diazatricyclo[6.2.1.02,7]undeca-2,4,6-trien-1-yl]-1-piperidyl]-oxazol-2-yl-methanone]: 4.5 nM.
Turning to `CC[C@H](C[C@@]12CC[C@@H](c3cc(-c4c(F)cccc4F)nnc31)C2(C)C)C(N)=O` [Compound 4, (R)-2-(((5R,8R)-3-(2,6-difluorophenyl)-9,9-dimethyl-5,6,7,8-tetrahydro-5,8-methanocinnolin-8-yl)methyl)butanamide], the IC50 is 82.4 nM.
Next, `CC1(C)[C@H]2CC[C@]1(c1cncc3nccn13)c1nnc(-c3c(F)cccc3F)cc12` [Compound 109, (5R,8S)-3-(2,6-difluorophenyl)-8-(imidazo[1,2-a]pyrazin-5-yl)-9,9-dimethyl-5,6,7,8-tetrahydro-5,8-methanocinnoline]: 175 nM; `CNC(=O)c1nccnc1O[C@@]12CC[C@@H](c3cc(-c4c(F)cccc4F)nnc31)C2(C)C` [Compound 15, 3-(((5S,8R)-3-(2,6-difluorophenyl)-9,9-dimethyl-5,6,7,8-tetrahydro-5,8-methanocinnolin-8-yl)oxy)-N-methylpyrazine-2-carboxamide]: 72.2 nM; `CC1(C)[C@H]2CC[C@]1([C@@H]1CN(C(N)=O)CCN1)c1nnc(-c3c(F)cccc3F)cc12` [Compound 184, 3-[5-(2,6-difluorophenyl)-11,11-dimethyl-3,4-diazatricyclo[6.2.1.02,7]undeca-2,4,6-trien-1-yl]piperazine-1-carboxamide]: 29 nM.
Next, `COC(=O)N1CCC[C@H]([C@@]23CC[C@@H](c4cc(-c5c(F)cccc5F)nnc42)C3(C)C)C1` [Compound 99, (R)-methyl 3-((5R,8R)-3-(2,6-difluorophenyl)-9,9-dimethyl-5,6,7,8-tetrahydro-5,8-methanocinnolin-8-yl)piperidine-1-carboxylate]: 6.9 nM.
With `CC(C)(O)CNC(=O)N1CCC[C@H]([C@@]23CC[C@@H](c4cc(-c5c(F)cccc5F)nnc42)C3(C)C)C1` [Compound 150, 3-[5-(2,6-difluorophenyl)-11,11-dimethyl-3,4-diazatricyclo[6.2.1.02,7]undeca-2,4,6-trien-1-yl]-N-(2-hydroxy-2-methyl-propyl)piperidine-1-carboxamide], the IC50 was determined as 7.9 nM.
In turn, `CC1(C)[C@H]2CC[C@]1(c1nnc(C(N)=O)o1)c1nnc(-c3c(F)cccc3F)cc12` [Compound 2, 5-((5R,8R)-3-(2,6-difluorophenyl)-9,9-dimethyl-5,6,7,8-tetrahydro-5,8-methanocinnolin-8-yl)-1,3,4-oxadiazole-2-carboxamide] came in with an IC50 of 520 nM.
Next, `Cc1noc(N2CCO[C@H]([C@@]34CC[C@@H](c5cc(-c6c(F)cccc6F)nnc53)C4(C)C)C2)n1` [Compound 84, (R)-2-((5R,8R)-3-(2,6-difluorophenyl)-9,9-dimethyl-5,6,7,8-tetrahydro-5,8-methanocinnolin-8-yl)-4-(3-methyl-1,2,4-oxadiazol-5-yl)morpholine]: 277 nM.
Next, `CC[C@@H](O[C@@]12CC[C@@H](c3cc(-c4c(F)cccc4F)nnc31)C2(C)C)c1nc(COC)no1` [Compound 41, 5-((R)-1-(((5S,8R)-3-(2,6-difluorophenyl)-9,9-dimethyl-5,6,7,8-tetrahydro-5,8-methanocinnolin-8-yl)oxy)propyl)-3-(methoxymethyl)-1,2,4-oxadiazole]: 4 nM.
Compound `CN1CCO[C@@H]([C@@]23CC[C@@H](c4cc(-c5c(F)cccc5F)nnc42)C3(C)C)C1` [Compound 71, (S)-2-((5R,8R)-3-(2,6-difluorophenyl)-9,9-dimethyl-5,6,7,8-tetrahydro-5,8-thanocinnolin-8-yl)-4-methylmorpholine] displayed an IC50 of 375 nM.
Next, `CN1CCN[C@H]([C@@]23CC[C@@H](c4cc(-c5c(F)cccc5F)nnc42)C3(C)C)C1` [Compound 183, 5-(2,6-difluorophenyl)-11,11-dimethyl-1-(4-methylpiperazin-2-yl)-3,4-diazatricyclo[6.2.1.02,7]undeca-2,4,6-triene]: 13 nM.
Turning to `CC1(C)[C@H]2CC[C@]1([C@H]1CN(C(=O)c3ccc(Cl)nn3)CCO1)c1nnc(-c3c(F)cccc3F)cc12` [Compound 124, (6-chloropyridazin-3-yl)-[2-[5-(2,6-difluorophenyl)-11,11-dimethyl-3,4-diazatricyclo[6.2.1.02,7]undeca-2,4,6-trien-1-yl]morpholin-4-yl]methanone], the IC50 came out at 140 nM.
As for `CC[C@H](O[C@@]12CC[C@@H](c3cc(-c4c(F)cccc4F)nnc31)C2(C)C)C(=O)OC` [Compound 110, methyl (2S)-2-[[(1R,8S)-5-(2,6-difluorophenyl)-11,11-dimethyl-3,4-diazatricyclo[6.2.1.02,7]undeca-2,4,6-trien-1-yl]oxy]butanoate], the figure is 100 nM.
As for `CC1(C)[C@H]2CC[C@]1([C@H]1CCCN(C(=O)NCCO)C1)c1nnc(-c3c(F)cccc3F)cc12` (stereo in doubt) [Compound 152, 3-[5-(2,6-difluorophenyl)-11,11-dimethyl-3,4-diazatricyclo[6.2.1.02,7]undeca-2,4,6-trien-1-yl]-N-(2-hydroxyethyl)piperidine-1-carboxamide], the figure is 7.4 nM; as for `CC1(C)C2CCC1(C1CCCN(C(=O)c3cnoc3)C1)c1nnc(-c3c(F)cccc3F)cc12` (centres unmarked) [Compound 160, [3-[5-(2,6-difluorophenyl)-11,11-dimethyl-3,4-diazatricyclo[6.2.1.02,7]undeca-2,4,6-trien-1-yl]-1-piperidyl]-isoxazol-4-yl-methanone], 200 nM.
Next, `CC1(C)[C@H]2CC[C@]1(Oc1ccccc1)c1nnc(-c3c(F)cccc3F)cc12` [Compound 24, (5S,8R)-3-(2,6-difluorophenyl)-9,9-dimethyl-8-phenoxy-5,6,7,8-tetrahydro-5,8-methanocinnoline]: 14.4 nM; `CC[C@@H](O[C@@]12CC[C@@H](c3cc(-c4c(F)cccc4F)nnc31)C2(C)C)C(N)=O` [Compound 31, (R)-2-(((5S,8R)-3-(2,6-difluorophenyl)-9,9-dimethyl-5,6,7,8-tetrahydro-5,8-methanocinnolin-8-yl)oxy)butanamide]: 8.8 nM.
In turn, `CCC[C@H](O[C@@]12CC[C@@H](c3cc(-c4c(F)cccc4F)nnc31)C2(C)C)C(N)=O` [Compound 50, (S)-2-(((5S,8R)-3-(2,6-difluorophenyl)-9,9-dimethyl-5,6,7,8-tetrahydro-5,8-methanocinnolin-8-yl)oxy)pentanamide] came in with an IC50 of 200 nM.
Regarding `CC1(C)[C@H]2CC[C@]1(Oc1ccc(=O)[nH]c1)c1nnc(-c3c(F)cccc3F)cc12` [Compound 33, 5-(((5S,8R)-3-(2,6-difluorophenyl)-9,9-dimethyl-5,6,7,8-tetrahydro-5,8-methanocinnolin-8-yl)oxy)pyridin-2(1H)-one], the IC50 stood at 120 nM.
The compound `CC1(C)[C@H]2CC[C@]1([C@H]1CCCN(C(=O)c3cocn3)C1)c1nnc(-c3c(F)cccc3F)cc12` [Compound 122, [3-[5-(2,6-difluorophenyl)-11,11-dimethyl-3,4-diazatricyclo[6.2.1.02,7]undeca-2,4,6-trien-1-yl]-1-piperidyl]-oxazol-4-yl-methanone] yielded an IC50 of 21 nM.
Next, `CC1(C)[C@H]2CC[C@]1([C@H]1CCCN(C(=O)NC3CCC3)C1)c1nnc(-c3c(F)cccc3F)cc12` [Compound 149, N-cyclobutyl-3-[5-(2,6-difluorophenyl)-11,11-dimethyl-3,4-diazatricyclo[6.2.1.02,7]undeca-2,4,6-trien-1-yl]piperidine-1-carboxamide]: 8.2 nM; `CC1(C)[C@H]2CC[C@]1(Oc1cccnc1)c1nnc(-c3c(F)cccc3F)cc12` [Compound 27, (5S,8R)-3-(2,6-difluorophenyl)-9,9-dimethyl-8-(pyridin-3-yloxy)-5,6,7,8-tetrahydro-5,8-methanocinnoline]: 67 nM; `CC[C@@H](O[C@@]12CC[C@@H](c3cc(-c4c(F)cccc4F)nnc31)C2(C)C)c1nnc(CO)o1` [Compound 32, (5-((R)-1-(((5S,8R)-3-(2,6-difluorophenyl)-9,9-dimethyl-5,6,7,8-tetrahydro-5,8-methanocinnolin-8-yl)oxy)propyl)-1,3,4-oxadiazol-2-yl)methanol]: 5.7 nM.
Next, `CC[C@@H](O[C@@]12CC[C@@H](c3cc(-c4c(F)cccc4F)nnc31)C2(C)C)C(=O)N1CCCOCC1` [Compound 101, (R)-2-(((5S,8R)-3-(2,6-difluorophenyl)-9,9-dimethyl-5,6,7,8-tetrahydro-5,8-methanocinnolin-8-yl)oxy)-1-(1,4-oxazepan-4-yl)butan-1-one]: 148 nM; `C[C@H](O)CNC(=O)N1CCC[C@H]([C@@]23CC[C@@H](c4cc(-c5c(F)cccc5F)nnc42)C3(C)C)C1` [Compound 151, 3-[5-(2,6-difluorophenyl)-11,11-dimethyl-3,4-diazatricyclo[6.2.1.02,7]undeca-2,4,6-trien-1-yl]-N-(2-hydroxypropyl)piperidine-1-carboxamide]: 7.7 nM.
On to `CC1(C)[C@H]2CC[C@]1([C@H]1CCCN(c3cccnn3)C1)c1nnc(-c3c(F)cccc3F)cc12` [Compound 169, 5-(2,6-difluorophenyl)-11,11-dimethyl-1-(1-pyridazin-3-yl-3-piperidyl)-3,4-diazatricyclo[6.2.1.02,7]undeca-2,4,6-triene], for which the IC50 amounted to 40 nM.
